# Measurements: ChEMBL document CHEMBL1212835, “Identification of a potent and noncytotoxic inhibitor of melanin production” (Bioorg Med Chem, 2010)
# Several values for one entry are separate records, joined by “and”; a condition that tells them apart may be missing. Equal values may be shown once. Activity calls are given as the source filed them. The rule behind the calls is not given here.
# Assays:
# [1] = Cytotoxicity against mouse Melan-a cells assessed as cell viability at 30 uM; format: cell-based; details: for viability at 30 µM: Melan-a cells, read-out: Activity
# Cavia porcellus = assay: Antimelanogenic activity in guinea pig skin assessed as inhibition of UVB-induced pigmentation at 10 ug administered topically bid for 4 weeks; format: functional, organism-based
Structure (SMILES),viability at 30 µM [1] [%],other results
COc1ccc(C(=O)Nc2ccc(OC)cc2OC)cc1,-9.4,–
COc1ccc(OC)c(NC(=O)c2ccco2)c1,-17,–
COc1cccc(NC(=O)c2cccc(C)c2)c1,-0.3,–
COC(=O)c1cccc(NC(=O)c2cccc(C)c2)c1,10.5,–
Cc1cccc(NC(=O)c2ccc(C#N)cc2)c1,11.1,–
COc1cccc(NC(=O)c2cccc(OC)c2)c1,-8.4,–
COC(=O)c1ccc(NC(=O)c2cccc(OC)c2)cc1,13.7,–
COC(=O)c1ccc(NC(=O)c2ccc(C)cc2)cc1,11.2,–
COc1ccc(NC(=O)c2ccco2)cc1,13.6,–
CCc1ccc(C(=O)Nc2cc(OC)cc(OC)c2)cc1,10.1,–
COc1cccc(NC(=O)c2ccc(C#N)cc2)c1,-9.4,–
Cc1cccc(NC(=O)c2cccc(C)c2)c1,-0.1,–
COc1ccc(NC(=O)c2ccccc2C)cc1,12.8,–
CCc1ccc(C(=O)Nc2cc(OC)ccc2OC)cc1,-19.8,–
CCc1ccc(C(=O)Nc2ccccc2OC)cc1,13.5,–
Cc1cc(C)cc(NC(=O)c2ccccc2C)c1,25.6,–
CC(=O)c1ccc(NC(=O)c2cccc(C)c2)cc1,-5.9,–
COc1cccc(C(=O)Nc2ccc(C)cc2)c1,7.5,–
COc1cc(NC(=O)c2ccco2)cc(OC)c1,-1.3,–
CCCCOc1ccc(NC(=O)c2ccco2)cc1,3.7,–
CCc1ccc(C(=O)Nc2cc(C)cc(C)c2)cc1,–,"Activity ([1]; melan-a, 30 µM): 41.5% and > 90%"
COC(=O)c1cccc(NC(=O)c2cccc(OC)c2)c1,20.1,–
Cc1cc(C)cc(NC(=O)c2ccco2)c1,14.2,–
CCCCOc1ccc(NC(=O)c2ccc(CC)cc2)cc1,-10.8,–
COc1ccc(NC(=O)c2ccc(C)cc2)c(OC)c1,14.4,–

Structure (SMILES),viability at 30 µM [1] [%],other results
COc1ccc(NC(=O)c2ccc(OC)cc2)cc1,-10.6,–
Cc1ccc(NC(=O)c2cccc(C)c2)cc1,-2.4,–
COC(=O)c1ccccc1NC(=O)c1ccco1,-2.3,–
COc1ccccc1NC(=O)c1ccccc1C,7,–
COC(=O)c1cccc(NC(=O)c2ccccc2C)c1,4.6,–
COc1ccc(C(=O)Nc2ccc(C(C)=O)cc2)cc1,0.7,–
COc1ccccc1NC(=O)c1cccc(C)c1,11.1,–
COc1cc(NC(=O)c2cccc(OC)c2)cc(OC)c1,9.6,–
COc1ccc(NC(=O)c2ccco2)c(OC)c1,-24.1,–
COc1ccc(C(=O)Nc2cc(OC)cc(OC)c2)cc1,13.6,–
COc1ccccc1NC(=O)c1ccco1,-5.4,–
COc1cc(NC(=O)c2cccc(C)c2)cc(OC)c1,-12.6,–
CCCCOc1ccc(NC(=O)c2cccc(C)c2)cc1,4.8,–
Cc1ccc(C(=O)Nc2cccc(C)c2)cc1,14.3,–
COc1ccc(OC)c(NC(=O)c2cccc(C)c2)c1,0.3,–
COc1ccc(C(=O)Nc2cc(C)cc(C)c2)cc1,31.9,–
Cc1ccc(C(=O)Nc2cc(C(F)(F)F)cc(C(F)(F)F)c2)cc1,0.3,–
CC(=O)c1ccc(NC(=O)c2ccc(C)cc2)cc1,11.2,–
Cc1cc(C)cc(NC(=O)c2cccc(C)c2)c1,6,–
COc1ccc(OC)c(NC(=O)c2ccc(C#N)cc2)c1,-1.7,–
COc1cccc(C(=O)Nc2cc(OC)ccc2OC)c1,17.8,–
COC(=O)c1ccc(NC(=O)c2ccc(OC)cc2)cc1,-5.6,–
COc1ccc(NC(=O)c2cccc(C)c2)cc1,-0.4,–
Cc1ccc(NC(=O)c2ccccc2C)cc1,-0.2,–
Cc1ccc(C(=O)Nc2cc(C)cc(C)c2)cc1,30.9,–

Structure (SMILES),viability at 30 µM [1] [%],other results
COc1cccc(NC(=O)c2ccc(C)cc2)c1,2.7,–
N#Cc1ccc(C(=O)Nc2cc(C(F)(F)F)cc(C(F)(F)F)c2)cc1,33.3,–
COc1cccc(C(=O)Nc2cc(C(F)(F)F)cc(C(F)(F)F)c2)c1,9,–
COc1cccc(C(=O)Nc2ccccc2OC)c1,10.1,–
COc1ccc(C(=O)Nc2ccc(C)cc2)cc1,0.7,–
CCc1ccc(C(=O)Nc2cccc(OC)c2)cc1,6.3,–
CCc1ccc(C(=O)Nc2ccc(C(=O)OC)cc2)cc1,2,–
COc1cccc(NC(=O)c2ccco2)c1,0.4,–
CCc1ccc(C(=O)Nc2ccc(OC)cc2)cc1,-9.9,–
COC(=O)c1ccc(NC(=O)c2ccco2)cc1,-8.4,–
COc1ccc(NC(=O)c2ccc(C#N)cc2)cc1,8.8,–
Cc1cccc(NC(=O)c2ccco2)c1,-1.3,–
CC(=O)c1ccc(NC(=O)c2ccco2)cc1,-2.6,–
COc1ccc(C(=O)Nc2ccccc2OC)cc1,-2.6,–
COc1ccc(C(=O)Nc2cccc(OC)c2)cc1,0.6,–
COC(=O)c1ccccc1NC(=O)c1ccccc1C,9.7,–
COc1ccc(C(=O)Nc2cccc(C)c2)cc1,-1.7,–
COc1cc(NC(=O)c2ccc(C)cc2)cc(OC)c1,19.2,–
COc1cccc(NC(=O)c2ccccc2C)c1,13.4,–
COC(=O)c1ccc(NC(=O)c2cccc(C)c2)cc1,12.9,–
COc1ccc(C(=O)Nc2cc(C(F)(F)F)cc(C(F)(F)F)c2)cc1,21,–
COc1cccc(C(=O)Nc2cc(C)cc(C)c2)c1,32,Activity (Cavia porcellus): Active
CCc1ccc(C(=O)Nc2ccc(OC)cc2OC)cc1,-6.5,–
COc1ccccc1NC(=O)c1ccc(C)cc1,18.5,–
Cc1ccc(NC(=O)c2ccc(C#N)cc2)cc1,10.9,–

Structure (SMILES),viability at 30 µM [1] [%],other results
CCCCOc1ccc(NC(=O)c2ccc(C)cc2)cc1,-2.4,–
CCc1ccc(C(=O)Nc2cccc(C)c2)cc1,-2.2,–
COC(=O)c1cccc(NC(=O)c2ccc(C)cc2)c1,16.4,–
COc1ccc(C(=O)Nc2cc(OC)ccc2OC)cc1,-8.3,–
CCCCOc1ccc(NC(=O)c2ccccc2C)cc1,9.9,–
COC(=O)c1cccc(NC(=O)c2ccc(OC)cc2)c1,18.8,–
COc1cccc(C(=O)Nc2cccc(C)c2)c1,12,–
COc1cc(NC(=O)c2ccc(C#N)cc2)cc(OC)c1,9.6,–
COc1ccccc1NC(=O)c1ccc(C#N)cc1,-3.1,–
COc1cc(NC(=O)c2ccccc2C)cc(OC)c1,6.4,–
COC(=O)c1ccc(NC(=O)c2ccccc2C)cc1,0.8,–
Cc1cccc(NC(=O)c2ccccc2C)c1,5.8,–
Cc1cc(C)cc(NC(=O)c2ccc(C#N)cc2)c1,31.6,–
CCc1ccc(C(=O)Nc2ccc(C(C)=O)cc2)cc1,3.4,–
Cc1ccccc1C(=O)Nc1cc(C(F)(F)F)cc(C(F)(F)F)c1,15.1,–
COC(=O)c1cccc(NC(=O)c2ccco2)c1,0.4,–
COc1cccc(C(=O)Nc2ccc(OC)cc2OC)c1,-3.9,–
Cc1cccc(C(=O)Nc2cc(C(F)(F)F)cc(C(F)(F)F)c2)c1,-2.3,–
COC(=O)c1ccccc1NC(=O)c1ccc(C)cc1,20.1,–
COc1ccc(NC(=O)c2ccc(C)cc2)cc1,4.9,–
CCCCOc1ccc(NC(=O)c2cccc(OC)c2)cc1,19.1,–
COC(=O)c1ccccc1NC(=O)c1ccc(C#N)cc1,8,–
COC(=O)c1ccccc1NC(=O)c1cccc(OC)c1,11.1,–
COc1ccc(NC(=O)c2ccc(C#N)cc2)c(OC)c1,7.2,–
CC(=O)c1ccc(NC(=O)c2ccc(C#N)cc2)cc1,6.9,–

Structure (SMILES),viability at 30 µM [1] [%],other results
COC(=O)c1cccc(NC(=O)c2ccc(C#N)cc2)c1,0.8,–
COc1ccc(NC(=O)c2cccc(C)c2)c(OC)c1,3.2,–
Cc1ccc(NC(=O)c2ccco2)cc1,7.9,–
CCc1ccc(C(=O)Nc2cc(C(F)(F)F)cc(C(F)(F)F)c2)cc1,16.5,–
COc1cccc(C(=O)Nc2ccc(C(C)=O)cc2)c1,-5,–
COc1ccc(OC)c(NC(=O)c2ccc(C)cc2)c1,-3.2,–
CCc1ccc(C(=O)Nc2ccccc2C(=O)OC)cc1,18.9,–
COc1ccc(NC(=O)c2c(OC)cccc2OC)cc1,10.2,–
COc1ccc(NC(=O)c2cccc(OC)c2)cc1,0.5,–
COC(=O)c1ccc(NC(=O)c2ccc(C#N)cc2)cc1,14.2,–
CCCCOc1ccc(NC(=O)c2ccc(C#N)cc2)cc1,-4.4,–
COc1ccc(NC(=O)c2ccccc2C)c(OC)c1,-3.5,–
CC(=O)c1ccc(NC(=O)c2ccccc2C)cc1,0.1,–
Cc1ccc(NC(=O)c2ccc(C)cc2)cc1,13.9,–
CCc1ccc(C(=O)Nc2cccc(C(=O)OC)c2)cc1,37,–
COC(=O)c1ccccc1NC(=O)c1ccc(OC)cc1,31.1,–
CCc1ccc(C(=O)Nc2ccc(C)cc2)cc1,1.8,–
COc1ccc(OC)c(NC(=O)c2ccccc2C)c1,8.6,–
O=C(Nc1cc(C(F)(F)F)cc(C(F)(F)F)c1)c1ccco1,31.9,–
COC(=O)c1ccccc1NC(=O)c1cccc(C)c1,29.6,–
CCCCOc1ccc(NC(=O)c2ccc(OC)cc2)cc1,1,–
